# Biological target: USP7 (Homo sapiens, UniProt Q93009)
# Test: Ub-Rho cleavage assay
# Type: biochemical
# Details: not given
# Description: All fluorescence measurements were performed on a Molecular Devices FlexStation3 with excitation at 480 nm and emission 540 nm, PMT Gain: Medium, Flash Number: 10. […] Assay buffer for all measurements was 50 mM HEPES, 100 mM NaCl, 0.5 mM EDTA, 1 mM TCEP, 0.1 mg/ml BSA, 0.01% Tween-20, pH 7.8. […] Serial dilutions were made with a Mosquito HTS (SPT Labtech) nanoliter liquid handler. 200 nL of each compound in duplicate or DMSO control were transferred to the assay plate. The first two columns served as positive controls. 9.8 μl per well of USP7 working solution was added to the assay plate. Compound+Protein was incubated for 25 min at 25° C. 10 uL of Ub-Rho substrate was added per well and incubated for an additional 15 min at 25° C. Fluorescence was then measured. Percent response relative to DMSO controls was calculated in GraphPad or Scinamic, and the data was fitted to a non-linear regression to determine IC50 values.
# Sequence of USP7 (Q93009 whole entry): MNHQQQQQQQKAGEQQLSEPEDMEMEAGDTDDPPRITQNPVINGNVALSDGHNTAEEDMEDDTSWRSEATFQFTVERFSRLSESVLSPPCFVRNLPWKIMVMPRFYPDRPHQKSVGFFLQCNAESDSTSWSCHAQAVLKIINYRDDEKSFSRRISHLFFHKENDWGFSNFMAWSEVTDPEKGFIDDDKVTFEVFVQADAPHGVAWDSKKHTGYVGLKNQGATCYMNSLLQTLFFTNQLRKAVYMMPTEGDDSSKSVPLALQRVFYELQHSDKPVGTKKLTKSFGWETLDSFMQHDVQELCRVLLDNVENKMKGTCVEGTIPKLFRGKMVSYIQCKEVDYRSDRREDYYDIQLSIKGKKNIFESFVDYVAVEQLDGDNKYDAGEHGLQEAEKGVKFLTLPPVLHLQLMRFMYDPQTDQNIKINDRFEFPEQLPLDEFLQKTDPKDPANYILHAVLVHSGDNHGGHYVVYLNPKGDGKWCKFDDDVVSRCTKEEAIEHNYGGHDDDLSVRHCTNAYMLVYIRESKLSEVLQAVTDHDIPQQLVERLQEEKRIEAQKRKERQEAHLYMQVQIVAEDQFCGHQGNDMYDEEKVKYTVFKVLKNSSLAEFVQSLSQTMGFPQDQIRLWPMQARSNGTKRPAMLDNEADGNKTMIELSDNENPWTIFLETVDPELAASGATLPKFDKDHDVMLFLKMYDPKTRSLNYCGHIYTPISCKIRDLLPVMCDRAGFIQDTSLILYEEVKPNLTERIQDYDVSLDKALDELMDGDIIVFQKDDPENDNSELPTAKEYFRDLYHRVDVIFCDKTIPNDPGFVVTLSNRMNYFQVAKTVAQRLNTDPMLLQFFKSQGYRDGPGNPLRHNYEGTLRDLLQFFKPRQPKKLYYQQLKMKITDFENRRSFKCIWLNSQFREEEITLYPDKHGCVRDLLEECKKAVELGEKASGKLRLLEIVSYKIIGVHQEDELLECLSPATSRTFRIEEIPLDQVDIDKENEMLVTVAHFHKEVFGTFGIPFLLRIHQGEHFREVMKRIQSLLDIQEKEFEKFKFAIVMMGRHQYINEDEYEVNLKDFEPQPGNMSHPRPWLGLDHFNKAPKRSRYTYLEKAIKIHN
row,IC50,SMILES
1,< 1 µM,O=C(C[C@@H](C(F)F)n1ccc(F)n1)N1CCC(O)(Cn2cnc3c(cnn3-c3ccc(F)cc3)c2=O)CC1 [U25]

# Same assay, conditions: Ub-Rho substrate, recombinant USP7; read-out: Ub (Rho) USP7.1 (IC50)
row,IC50,SMILES
1,< 1 µM,C[C@H](CC(=O)N1CCC(O)(Cn2cnc3c(C#CCO)csc3c2=O)CC1)c1ccccc1 [U1]
2,1 to 100 µM,C[C@H](CC(=O)N1CCC(O)(Cn2cnc3cc(Br)ccc3c2=O)CC1)c1ccccc1 [U3]
3,1 to 100 µM,C[C@H](CC(=O)N1CCC(O)(Cn2cnc3cc(Cl)ccc3c2=O)CC1)c1ccccc1 [U4]
4,< 1 µM,C[C@H](CC(=O)N1CCC(O)(Cn2cnc3cc(N(C)CCN(C)CCCNC(=O)OC(C)(C)C)ccc3c2=O)CC1)c1ccccc1 [U5]
5,< 1 µM,C[C@H](CC(=O)N1CCC(O)(Cn2cnc3cc(NCCN(C)CCCNC(=O)OC(C)(C)C)ccc3c2=O)CC1)c1ccccc1 [U6]
6,1 to 100 µM,CCc1c(-c2ccc(C(=O)NCCCNC(=O)OC(C)(C)C)nc2)cnc(N)c1-c1ccc(O)cc1 [U7]
7,1 to 100 µM,CCc1c(-c2ccc3[nH]ncc3c2)cnc(N)c1-c1ccc(O)cc1 [U8]
8,< 1 µM,Cc1cc(Cl)cc(-c2ccnc3cc(CN4C(=O)CCC4=O)sc23)c1OC1CCN(CCCNC(=O)OC(C)(C)C)CC1 [U9]
9,1 to 100 µM,CCc1c(-c2ccc(C(=O)NCCOCCOCCOCCN=[N+]=[N-])nc2)cnc(N)c1-c1ccc(O)cc1 [U10]
10,1 to 100 µM,CCc1c(-c2ccc(C(=O)NC)cc2)cnc(N)c1-c1ccc(O)cc1 [U11]
11,1 to 100 µM,Cc1cc(Cl)cc(-c2ccnc3cc(CN4C(=O)CCC4=O)sc23)c1OC1CCN(C(=O)CCNC(=O)OC(C)(C)C)CC1 [U13]
12,< 1 µM,C[C@H](CC(=O)N1CCC(O)(Cn2cnc3c(-c4ccc(CNC(=O)OC(C)(C)C)cc4)n(C)nc3c2=O)CC1)c1ccccc1 [U14]
13,> 100 µM,Cc1cc(Cl)cc(-c2ccnc3cc(CN4C(=O)CCC4=O)sc23)c1OC1CCN(C(=O)OC(C)(C)C)CC1 [U15]
14,< 1 µM,Cc1cc(Cl)cc(-c2ccnc3cc(CN4C(=O)CCC4=O)sc23)c1OC1CCNCC1 [U16]
15,< 1 µM,Cc1cc(Cl)cc(-c2ccnc3cc(CN4C(=O)CCC4=O)sc23)c1OC1CCN(C(=O)CN=[N+]=[N-])CC1 [U19]
16,1 to 100 µM,C[C@H](CC(=O)N1CCC(O)(CN2C=NC3C(C#CCOCCNC(=O)OC(C)(C)C)=CSC3C2=O)CC1)c1ccccc1 (some centres unmarked) [U20]
17,1 to 100 µM,CCc1c(-c2ccc(OCCN)cc2)cnc(N)c1-c1ccc(O)cc1 [U21]
18,< 1 µM,Cc1cc(Cl)cc(-c2ccnc3cc(CN4C(=O)CCC4=O)sc23)c1CC1CCN(C(=O)CN)CC1 [U22]
19,< 1 µM,C[C@H](CC(=O)N1CCC(O)(Cn2cnc3c(C#CCO)n(C)nc3c2=O)CC1)c1ccccc1 [U23]
20,1 to 100 µM,Nc1ncc(-c2ccc(O)cc2)cc1-c1ccc(O)cc1 [U24]
21,1 to 100 µM,C[C@H](CC(=O)C1CCC(O)(Cn2cnc3cc(C#CCN=[N+]=[N-])ccc3c2=O)CC1)c1ccccc1 (some centres unmarked) [U28]
22,> 100 µM,C[C@H](CC(=O)N1CCC(O)(Cn2cnc3cc(C#CCN)ccc3c2=O)CC1)c1ccccc1 [U29]
23,< 1 µM,Cc1cc(Cl)cc(-c2ccnc3cc(CN4C(=O)CCC4=O)sc23)c1OC1CCN(CCCCCCCNC(=O)OC(C)(C)C)CC1 [U30]
24,> 100 µM,Cc1cc(Cl)cc(-c2ccnc3cc(CN4C(=O)CCC4=O)sc23)c1OC1CCN(C(=O)CCCCCCCCNC(=O)OC(C)(C)C)CC1 [U31]

# Biological target: T1, USP7 CD + UBL 1-5 (Homo sapiens, UniProt Q93009)
# T1 construct: USP7 CD +
# Test: Surface plasmon resonance assay (SPR)
# Type: binding
# Details: SPR USP7 CD + UBL 1-5 (KD_ss) [nM], steady-state KD
# Description: The surface plasmon resonance experiments were performed using a Cytiva (formerly GE Healthcare) Biacore 8K equipped with a Series S Sensor Chip SA. The ligands were immobilized via a biotin-modified biotin acceptor peptide. USP7 Ligands were diluted in running buffer (HBS-P+2% DMSO; 10 mM HEPES, pH 7.4, 150 mM NaCl, 1 mM DTT, 0.05% P20, 2% DMSO) to 100 μg/mL and injected at […] until a density between 500-10,000 RU was reached on flow-cell two of each channel, and flow cell one was left blank to serve as a reference surface. Both surfaces were washed until a stable baseline was achieved then 30 startup cycles to condition the surface. To collect kinetic and steady-state binding data, the small molecule analytes were prepared in three-fold dilution series in HBS-P+2% DMSO running buffer. Analytes were injected over both flow cells at a flow rate of […] at 25° C. The complex was allowed to associate for 60 seconds and dissociate for 300 seconds. Data were collected at 10 Hz. The data were fit to a simple 1:1 interaction model global data analysis within Cytiva Biacore Insight Evaluation Software.
# T1 sequence (Q93009 208-1102 limits assumed): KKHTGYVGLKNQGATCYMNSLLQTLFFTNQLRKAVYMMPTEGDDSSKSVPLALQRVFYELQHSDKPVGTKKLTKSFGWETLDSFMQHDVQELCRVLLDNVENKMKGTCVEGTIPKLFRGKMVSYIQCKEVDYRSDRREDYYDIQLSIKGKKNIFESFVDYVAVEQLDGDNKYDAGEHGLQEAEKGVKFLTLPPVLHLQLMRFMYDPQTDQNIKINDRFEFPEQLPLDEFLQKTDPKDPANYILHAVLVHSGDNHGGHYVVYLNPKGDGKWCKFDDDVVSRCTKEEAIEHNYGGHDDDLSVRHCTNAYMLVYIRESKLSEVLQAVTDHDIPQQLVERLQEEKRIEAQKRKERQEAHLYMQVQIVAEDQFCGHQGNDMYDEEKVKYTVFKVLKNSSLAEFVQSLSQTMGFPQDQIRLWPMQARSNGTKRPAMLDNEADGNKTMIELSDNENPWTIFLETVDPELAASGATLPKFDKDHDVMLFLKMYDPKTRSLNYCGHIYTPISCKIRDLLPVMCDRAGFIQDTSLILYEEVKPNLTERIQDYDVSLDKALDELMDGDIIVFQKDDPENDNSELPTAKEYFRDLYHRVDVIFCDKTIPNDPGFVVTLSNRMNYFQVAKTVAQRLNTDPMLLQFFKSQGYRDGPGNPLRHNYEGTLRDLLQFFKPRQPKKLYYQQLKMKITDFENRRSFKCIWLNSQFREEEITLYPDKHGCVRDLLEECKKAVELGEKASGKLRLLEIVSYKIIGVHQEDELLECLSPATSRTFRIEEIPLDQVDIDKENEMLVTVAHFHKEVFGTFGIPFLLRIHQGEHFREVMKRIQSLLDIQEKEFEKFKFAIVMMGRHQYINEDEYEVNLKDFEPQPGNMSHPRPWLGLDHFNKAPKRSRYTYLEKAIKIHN
row,Kd,SMILES
1,< 1000 nM,O=C(C[C@@H](C(F)F)n1ccc(F)n1)N1CCC(O)(Cn2cnc3c(cnn3-c3ccc(F)cc3)c2=O)CC1 [U25]

# Same assay, conditions: kinetic KD; read-out: SPR USP7 CD + UBL 1-5 (KD_kinetic)
row,Kd,SMILES
1,< 1000 nM,C[C@H](CC(=O)N1CCC(O)(Cn2cnc3c(C#CCO)csc3c2=O)CC1)c1ccccc1 [U1]
2,1000 to 100000 nM,C[C@H](CC(=O)N1CCC(O)(Cn2cnc3cc(Br)ccc3c2=O)CC1)c1ccccc1 [U3]
3,< 1000 nM,C[C@H](CC(=O)N1CCC(O)(Cn2cnc3cc(N(C)CCN(C)CCCNC(=O)OC(C)(C)C)ccc3c2=O)CC1)c1ccccc1 [U5]
4,< 1000 nM,C[C@H](CC(=O)N1CCC(O)(Cn2cnc3cc(NCCN(C)CCCNC(=O)OC(C)(C)C)ccc3c2=O)CC1)c1ccccc1 [U6]
5,1000 to 100000 nM,CCc1c(-c2ccc(C(=O)NCCCNC(=O)OC(C)(C)C)nc2)cnc(N)c1-c1ccc(O)cc1 [U7]
6,1000 to 100000 nM,CCc1c(-c2ccc3[nH]ncc3c2)cnc(N)c1-c1ccc(O)cc1 [U8]
7,< 1000 nM,Cc1cc(Cl)cc(-c2ccnc3cc(CN4C(=O)CCC4=O)sc23)c1OC1CCN(CCCNC(=O)OC(C)(C)C)CC1 [U9]
8,1000 to 100000 nM,CCc1c(-c2ccc(C(=O)NCCOCCOCCOCCN=[N+]=[N-])nc2)cnc(N)c1-c1ccc(O)cc1 [U10]
9,< 1000 nM,C[C@H](CC(=O)N1CCC(O)(Cn2cnc3c(-c4ccc(CNC(=O)OC(C)(C)C)cc4)n(C)nc3c2=O)CC1)c1ccccc1 [U14]
10,1000 to 100000 nM,Cc1cc(Cl)cc(-c2ccnc3cc(CN4C(=O)CCC4=O)sc23)c1OC1CCN(C(=O)OC(C)(C)C)CC1 [U15]
11,< 1000 nM,Cc1cc(Cl)cc(-c2ccnc3cc(CN4C(=O)CCC4=O)sc23)c1OC1CCNCC1 [U16]
12,< 1000 nM,Cc1cc(Cl)cc(-c2ccnc3cc(CN4C(=O)CCC4=O)sc23)c1OC1CCN(CCCCCCCNC(=O)OC(C)(C)C)CC1 [U30]

# Same assay, conditions: steady-state KD; read-out: SPR USP7 CD + UBL 1-5 (KD_ss)
row,Kd,SMILES
1,< 1000 nM,C[C@H](CC(=O)N1CCC(O)(Cn2cnc3c(C#CCO)csc3c2=O)CC1)c1ccccc1 [U1]
2,1000 to 100000 nM,C[C@H](CC(=O)N1CCC(O)(Cn2cnc3cc(Br)ccc3c2=O)CC1)c1ccccc1 [U3]
3,1000 to 100000 nM,C[C@H](CC(=O)N1CCC(O)(Cn2cnc3cc(Cl)ccc3c2=O)CC1)c1ccccc1 [U4]
4,< 1000 nM,C[C@H](CC(=O)N1CCC(O)(Cn2cnc3cc(N(C)CCN(C)CCCNC(=O)OC(C)(C)C)ccc3c2=O)CC1)c1ccccc1 [U5]
5,< 1000 nM,C[C@H](CC(=O)N1CCC(O)(Cn2cnc3cc(NCCN(C)CCCNC(=O)OC(C)(C)C)ccc3c2=O)CC1)c1ccccc1 [U6]
6,1000 to 100000 nM,CCc1c(-c2ccc(C(=O)NCCCNC(=O)OC(C)(C)C)nc2)cnc(N)c1-c1ccc(O)cc1 [U7]
7,1000 to 100000 nM,CCc1c(-c2ccc3[nH]ncc3c2)cnc(N)c1-c1ccc(O)cc1 [U8]
8,< 1000 nM,Cc1cc(Cl)cc(-c2ccnc3cc(CN4C(=O)CCC4=O)sc23)c1OC1CCN(CCCNC(=O)OC(C)(C)C)CC1 [U9]
9,1000 to 100000 nM,CCc1c(-c2ccc(C(=O)NCCOCCOCCOCCN=[N+]=[N-])nc2)cnc(N)c1-c1ccc(O)cc1 [U10]
10,1000 to 100000 nM,CCc1c(-c2ccc(C(=O)NC)cc2)cnc(N)c1-c1ccc(O)cc1 [U11]
11,1000 to 100000 nM,Cc1cc(Cl)cc(-c2ccnc3cc(CN4C(=O)CCC4=O)sc23)c1OC1CCN(C(=O)CCNC(=O)OC(C)(C)C)CC1 [U13]
12,< 1000 nM,C[C@H](CC(=O)N1CCC(O)(Cn2cnc3c(-c4ccc(CNC(=O)OC(C)(C)C)cc4)n(C)nc3c2=O)CC1)c1ccccc1 [U14]
13,1000 to 100000 nM,Cc1cc(Cl)cc(-c2ccnc3cc(CN4C(=O)CCC4=O)sc23)c1OC1CCN(C(=O)OC(C)(C)C)CC1 [U15]
14,< 1000 nM,Cc1cc(Cl)cc(-c2ccnc3cc(CN4C(=O)CCC4=O)sc23)c1OC1CCNCC1 [U16]
15,< 1000 nM,Cc1cc(Cl)cc(-c2ccnc3cc(CN4C(=O)CCC4=O)sc23)c1OC1CCN(C(=O)CN=[N+]=[N-])CC1 [U19]
16,1000 to 100000 nM,C[C@H](CC(=O)N1CCC(O)(CN2C=NC3C(C#CCOCCNC(=O)OC(C)(C)C)=CSC3C2=O)CC1)c1ccccc1 (some centres unmarked) [U20]
17,1000 to 100000 nM,CCc1c(-c2ccc(OCCN)cc2)cnc(N)c1-c1ccc(O)cc1 [U21]
18,< 1000 nM,Cc1cc(Cl)cc(-c2ccnc3cc(CN4C(=O)CCC4=O)sc23)c1CC1CCN(C(=O)CN)CC1 [U22]
19,< 1000 nM,C[C@H](CC(=O)N1CCC(O)(Cn2cnc3c(C#CCO)n(C)nc3c2=O)CC1)c1ccccc1 [U23]
20,1000 to 100000 nM,Nc1ncc(-c2ccc(O)cc2)cc1-c1ccc(O)cc1 [U24]
21,< 1000 nM,C[C@H](CC(=O)C1CCC(O)(Cn2cnc3cc(C#CCN=[N+]=[N-])ccc3c2=O)CC1)c1ccccc1 (some centres unmarked) [U28]
22,< 1000 nM,C[C@H](CC(=O)N1CCC(O)(Cn2cnc3cc(C#CCN)ccc3c2=O)CC1)c1ccccc1 [U29]
23,< 1000 nM,Cc1cc(Cl)cc(-c2ccnc3cc(CN4C(=O)CCC4=O)sc23)c1OC1CCN(CCCCCCCNC(=O)OC(C)(C)C)CC1 [U30]
24,1000 to 100000 nM,Cc1cc(Cl)cc(-c2ccnc3cc(CN4C(=O)CCC4=O)sc23)c1OC1CCN(C(=O)CCCCCCCCNC(=O)OC(C)(C)C)CC1 [U31]

# From patent publication US20240358842A1, “PROTEIN STABILIZING COMPOUNDS CONTAINING USP7 LIGANDS” (Stablix, Inc., priority 2021, published 2024)
